Laboratory results: paper PMC6009964, “Designing, synthesis and bioactivities of 4-[3-(4-hydroxyphenyl)-5-aryl-4,5-dihydro-pyrazol-1-yl]benzenesulfonamides” (Journal of Enzyme Inhibition and Medicinal Chemistry, 2016)
Like-named read-outs stand apart in the source and are kept apart here.

Assays:
hCA IX = biological target: T1, hCA IX (Homo sapiens, UniProt Q16790); test: Stopped-flow CO2 hydration carbonic anhydrase assay, hCA IX; format: biochemical; settings: for Ki: stopped-flow CO2 hydration, 15 min preincubation, pH 7.5; for times more potent than compound 1 towards hCA IX: ratio of Ki versus compound 1
T1 construct: made in house

hCA XII = biological target: T2, hCA XII (Homo sapiens, UniProt O43570); test: Stopped-flow CO2 hydration carbonic anhydrase assay, hCA XII; format: biochemical; settings: for Ki: stopped-flow CO2 hydration, 15 min preincubation, pH 7.5; for hCA XII/hCA IX (selectivity ratio of Ki): times more selective towards hCA XII than hCA IX; for times more potent than compound 1 towards hCA XII: ratio of Ki versus compound 1
T2 construct: made in house
T2 sequence (O43570 25-354): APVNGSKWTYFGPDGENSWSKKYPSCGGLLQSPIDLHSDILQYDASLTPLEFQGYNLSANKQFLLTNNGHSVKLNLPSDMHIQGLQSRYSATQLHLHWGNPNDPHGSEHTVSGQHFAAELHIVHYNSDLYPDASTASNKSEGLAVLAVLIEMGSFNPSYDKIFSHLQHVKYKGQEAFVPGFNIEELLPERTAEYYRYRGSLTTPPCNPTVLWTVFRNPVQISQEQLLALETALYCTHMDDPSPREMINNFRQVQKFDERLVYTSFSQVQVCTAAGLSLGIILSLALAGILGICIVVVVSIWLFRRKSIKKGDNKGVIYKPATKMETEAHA

[1] = Cytotoxicity assay (MTT), HGF; settings: human, normal gingival fibroblasts (HGF)
[2] = Cytotoxicity assay (MTT), HPC; settings: human, normal pulp cells (HPC)
[3] = Cytotoxicity assay (MTT), HPLF; settings: human, normal periodontal ligament fibroblasts (HPLF)
[4] = test system: HSC-2 human oral squamous cell carcinoma cell line (tongue); test: Cytotoxicity assay (MTT), HSC-2; settings: for CC50: Homo sapiens, HSC-2, 48 h, read-out: CC50 HSC-2; for SI (HSC-2): average CC50 of nonmalignant cells / CC50 towards HSC-2
[5] = test system: HSC-3 human oral squamous cell carcinoma cell line (tongue); test: Cytotoxicity assay (MTT), HSC-3; settings: for CC50: Homo sapiens, HSC-3, 48 h, read-out: CC50 HSC-3; for SI (HSC-3): average CC50 of nonmalignant cells / CC50 towards HSC-3
[6] = test system: HSC-4 human oral squamous cell carcinoma cell line (tongue); test: Cytotoxicity assay (MTT), HSC-4; settings: for CC50: Homo sapiens, HSC-4, 48 h, read-out: CC50 HSC-4; for SI (HSC-4): average CC50 of nonmalignant cells / CC50 towards HSC-4
[7] = test system: Ca9–22 human oral squamous cell carcinoma cell line (gingiva); test: Cytotoxicity assay (MTT), Ca9-22; settings: for TS (C/A): CC50 HGF / CC50 Ca9–22 (same tissue origin, gingiva); for CC50: Homo sapiens, Ca9-22, 48 h, read-out: CC50 Ca9–22 (A); for SI (Ca9–22): average CC50 of nonmalignant cells / CC50 towards Ca9–22
[8] = Cytotoxicity assay (MTT), normal oral cells (mean); settings: human, normal oral cells HGF, HPLF, HPC (mean of the three)
[9] = test system: Human oral squamous cell carcinoma cell lines (Ca9–22, HSC-2, HSC-3, HSC-4); test: Cytotoxicity assay (MTT), all four OSCC lines (mean, selectivity); settings: for CC50: Homo sapiens; for TS (D/B): mean CC50 against normal cells / mean CC50 against cancer cells; for Mean SI: mean SI over four OSCC cell lines
[10] = read-out: CC50 Mean (B), human oral squamous cell carcinoma cell lines

NS(=O)(=O)c1ccc(N2N=C(c3ccc(O)cc3)CC2c2ccccc2)cc1 (stereo not shown) [Compound 1, 4-[3-(4-Hydroxyphenyl)-5-phenyl-4,5-dihydro-pyrazol-1-yl]benzenesulfonamide]
Ki (hCA IX): 0.923 µM | Ki (hCA XII): 0.0689 µM | hCA XII/hCA IX (selectivity ratio of Ki) (hCA XII): 13.4 | CC50 at 48 h [1]: 133 µM | CC50 at 48 h [2]: 161 µM | CC50 at 48 h [3]: 59.7 µM | CC50 [4]: 94.7 µM | SI (HSC-2) [4]: 1.2 | CC50 [5]: 81 µM | SI (HSC-3) [5]: 1.5 | CC50 [6]: 83.7 µM | SI (HSC-4) [6]: 1.4 | TS (C/A) [7]: 1.6 | CC50 [7]: 82 µM | SI (Ca9–22) [7]: 1.4 | CC50 at 48 h [8]: 118 µM | CC50 [9, 10]: 85.3 µM | TS (D/B) [9]: 1.4 | Mean SI [9]: 1.4

Cc1ccc(C2CC(c3ccc(O)cc3)=NN2c2ccc(S(N)(=O)=O)cc2)cc1 (stereo not shown) [Compound 2, 4-[3-(4-Hydroxyphenyl)-5-p-tolyl-4,5-dihydro-pyrazol-1-yl]benzenesulfonamide]
Ki (hCA IX): 0.1 µM | Ki (hCA XII): 0.095 µM | CC50 at 48 h [1]: 99.3 µM | CC50 at 48 h [2]: 150 µM | CC50 at 48 h [3]: 42.3 µM | CC50 [4]: 95.3 µM | SI (HSC-2) [4]: 1.0 | CC50 [5]: 67.3 µM | SI (HSC-3) [5]: 1.4 | CC50 [6]: 70.3 µM | SI (HSC-4) [6]: 1.4 | TS (C/A) [7]: 1.7 | CC50 [7]: 57 µM | SI (Ca9–22) [7]: 1.7 | CC50 at 48 h [8]: 97.2 µM | CC50 [9, 10]: 72.5 µM | TS (D/B) [9]: 1.3 | Mean SI [9]: 1.4

COc1ccc(C2CC(c3ccc(O)cc3)=NN2c2ccc(S(N)(=O)=O)cc2)cc1 (stereo not shown) [Compound 3, 4-[3-(4-Hydroxyphenyl)-5-(4-methoxyphenyl)-4,5-dihydro-pyrazol-1-yl]benzenesulfonamide]
times increased inhibition potential versus compound 2 towards hCA IX (hCA IX; ratio of Ki versus compound 2): 1.1 | Ki (hCA IX): 0.0931 µM | times increased inhibition potential versus compound 2 towards hCA XII (hCA XII; ratio of Ki versus compound 2): 2.8 | Ki (hCA XII): 0.0336 µM | hCA XII/hCA IX (selectivity ratio of Ki) (hCA XII): 2.8 | CC50 at 48 h [1]: 108 µM | CC50 at 48 h [2]: 167 µM | CC50 at 48 h [3]: 39.3 µM | CC50 [4]: 95.3 µM | SI (HSC-2) [4]: 1.1 | CC50 [5]: 71 µM | SI (HSC-3) [5]: 1.5 | CC50 [6]: 88.3 µM | SI (HSC-4) [6]: 1.2 | TS (C/A) [7]: 2.0 | CC50 [7]: 53.3 µM | SI (Ca9–22) [7]: 2.0 | CC50 at 48 h [8]: 105 µM | CC50 [9, 10]: 77 µM | TS (D/B) [9]: 1.4 | Mean SI [9]: 1.4

NS(=O)(=O)c1ccc(N2N=C(c3ccc(O)cc3)CC2c2ccc(Cl)cc2)cc1 (stereo not shown) [Compound 4, 4-[5-(4-Chlorophenyl)-3-(4-hydroxyphenyl)-4,5-dihydro-pyrazol-1-yl]benzenesulfonamide]
Ki (hCA IX): 0.0977 µM | Ki (hCA XII): 0.0388 µM | hCA XII/hCA IX (selectivity ratio of Ki) (hCA XII): 2.5 | CC50 at 48 h [1]: 89 µM | CC50 at 48 h [2]: 144 µM | CC50 at 48 h [3]: 29.3 µM | CC50 [4]: 81.7 µM | SI (HSC-2) [4]: 1.1 | CC50 [5]: 57 µM | SI (HSC-3) [5]: 1.5 | CC50 [6]: 61 µM | SI (HSC-4) [6]: 1.4 | TS (C/A) [7]: 2.2 | CC50 [7]: 39.7 µM | SI (Ca9–22) [7]: 2.2 | CC50 at 48 h [8]: 87.6 µM | CC50 [9, 10]: 59.8 µM | TS (D/B) [9]: 1.5 | Mean SI [9]: 1.6

NS(=O)(=O)c1ccc(N2N=C(c3ccc(O)cc3)CC2c2ccc(Cl)cc2Cl)cc1 (stereo not shown) [Compound 5, 4-[5-(2,4-Dichlorophenyl)-3-(4-hydroxyphenyl)-4,5-dihydro-pyrazol-1-yl]benzenesulfonamide]
times more potent than compound 1 towards hCA IX (hCA IX): 10.8 | Ki (hCA IX): 0.0857 µM | times more potent than compound 1 towards hCA XII (hCA XII): 7.5 | Ki (hCA XII): 0.0092 µM | hCA XII/hCA IX (selectivity ratio of Ki) (hCA XII): 9.3 | CC50 at 48 h [1]: 63 µM | CC50 at 48 h [2]: 131 µM | CC50 at 48 h [3]: 34.7 µM | CC50 [4]: 82.3 µM | SI (HSC-2) [4]: 0.9 | CC50 [5]: 76 µM | SI (HSC-3) [5]: 1.0 | CC50 [6]: 54 µM | SI (HSC-4) [6]: 1.4 | TS (C/A) [7]: 1.4 | CC50 [7]: 44.3 µM | SI (Ca9–22) [7]: 1.7 | CC50 at 48 h [8]: 76.2 µM | CC50 [9, 10]: 64.2 µM | TS (D/B) [9]: 1.2 | Mean SI [9]: 1.3

O=c1[nH]cc(F)c(=O)[nH]1 [Compound 5-FU, 5-Fluorouracil, reference compound]
CC50 at 48 h [1]: > 1000 µM | CC50 at 48 h [2]: > 1000 µM | CC50 at 48 h [3]: > 1000 µM | CC50 [4]: 13 µM | SI (HSC-2) [4]: >76.9 | CC50 [5]: 16 µM | SI (HSC-3) [5]: >62.5 | CC50 [6]: 13 µM | SI (HSC-4) [6]: >76.9 | TS (C/A) [7]: >34.5 | CC50 [7]: 29 µM | SI (Ca9–22) [7]: >34.5 | CC50 at 48 h [8]: > 1000 µM | CC50 [9, 10]: 17.8 µM | CC50 ([9]; read-out: CC50 range towards cancer cell lines): 13 to 29 µM | TS (D/B) [9]: >56.2 | Mean SI [9]: >62.7

NS(=O)(=O)c1ccc(N2N=C(c3ccc(O)cc3)CC2c2ccc(F)cc2)cc1 (stereo not shown) [Compound 6, 4-[5-(4-Fluorophenyl)-3-(4-hydroxyphenyl)-4,5-dihydro-pyrazol-1-yl]benzenesulfonamide]
Ki (hCA IX): 0.0841 µM | Ki (hCA XII): 0.0086 µM | hCA XII/hCA IX (selectivity ratio of Ki) (hCA XII): 9.8 | CC50 at 48 h [1]: 64.7 µM | CC50 at 48 h [2]: 155 µM | CC50 at 48 h [3]: 33 µM | CC50 [4]: 84.7 µM | SI (HSC-2) [4]: 1.0 | CC50 [5]: 78 µM | SI (HSC-3) [5]: 1.1 | CC50 [6]: 62.3 µM | SI (HSC-4) [6]: 1.4 | TS (C/A) [7]: 1.0 | CC50 [7]: 61.7 µM | SI (Ca9–22) [7]: 1.4 | CC50 at 48 h [8]: 84.2 µM | CC50 [9, 10]: 71.7 µM | TS (D/B) [9]: 1.2 | Mean SI [9]: 1.2

NS(=O)(=O)c1ccc(N2N=C(c3ccc(O)cc3)CC2c2ccc(Br)cc2)cc1 (stereo not shown) [Compound 7, 4-[5-(4-Bromophenyl)-3-(4-hydroxyphenyl)-4,5-dihydro-pyrazol-1-yl]benzenesulfonamide]
Ki (hCA IX): 0.0662 µM | Ki (hCA XII): 0.0076 µM | hCA XII/hCA IX (selectivity ratio of Ki) (hCA XII): 8.7 | CC50 at 48 h [1]: 52 µM | CC50 at 48 h [2]: 149 µM | CC50 at 48 h [3]: 34.3 µM | CC50 [4]: 85 µM | SI (HSC-2) [4]: 0.9 | CC50 [5]: 70.3 µM | SI (HSC-3) [5]: 1.1 | CC50 [6]: 61.7 µM | SI (HSC-4) [6]: 1.3 | TS (C/A) [7]: 0.9 | CC50 [7]: 55.7 µM | SI (Ca9–22) [7]: 1.4 | CC50 at 48 h [8]: 78.6 µM | CC50 [9, 10]: 68.2 µM | TS (D/B) [9]: 1.2 | Mean SI [9]: 1.2

NS(=O)(=O)c1ccc(N2N=C(c3ccc(O)cc3)CC2c2ccc([N+](=O)[O-])cc2)cc1 (stereo not shown) [Compound 8, 4-[3-(4-Hydroxyphenyl)-5-(4-nitrophenyl)-4,5-dihydro-pyrazol-1-yl]benzenesulfonamide]
times more potent than compound 1 towards hCA IX (hCA IX): 14.5 | Ki (hCA IX): 0.0637 µM | times more potent than compound 1 towards hCA XII (hCA XII): 9.2 | Ki (hCA XII): 0.0075 µM | hCA XII/hCA IX (selectivity ratio of Ki) (hCA XII): 8.5 | CC50 at 48 h [1]: 42 µM | CC50 at 48 h [2]: 127 µM | CC50 at 48 h [3]: 30 µM | CC50 [4]: 76 µM | SI (HSC-2) [4]: 0.9 | CC50 [5]: 63.3 µM | SI (HSC-3) [5]: 1.0 | CC50 [6]: 63.7 µM | SI (HSC-4) [6]: 1.0 | TS (C/A) [7]: 1.1 | CC50 [7]: 39.3 µM | SI (Ca9–22) [7]: 1.7 | CC50 at 48 h [8]: 66.2 µM | CC50 [9, 10]: 60.6 µM | TS (D/B) [9]: 1.1 | Mean SI [9]: 1.2

NS(=O)(=O)c1ccc(N2N=C(c3ccc(O)cc3)CC2c2cccs2)cc1 (stereo not shown) [Compound 9, 4-[3-(4-Hydroxyphenyl)-5-(thiophen-2-yl)-4,5-dihydro-pyrazol-1-yl]benzenesulfonamide]
times more potent than compound 1 towards hCA IX (hCA IX): 17.3 | times more potent than compound 1 towards hCA XII (hCA XII): 11.1 | hCA XII/hCA IX (selectivity ratio of Ki) (hCA XII): 8.6 | CC50 at 48 h [1]: 166 µM | CC50 at 48 h [2]: 173 µM | CC50 at 48 h [3]: 26.7 µM | CC50 [4]: 67 µM | SI (HSC-2) [4]: 1.8 | CC50 [5]: 87.3 µM | SI (HSC-3) [5]: 1.4 | CC50 [6]: 93.7 µM | SI (HSC-4) [6]: 1.3 | TS (C/A) [7]: 1.7 | CC50 [7]: 99.3 µM | SI (Ca9–22) [7]: 1.2 | CC50 at 48 h [8]: 122 µM | CC50 [9, 10]: 86.8 µM | TS (D/B) [9]: 1.4 | Mean SI [9]: 1.4
